Active and inactive are the calls of the source.
Legend:
[1] = molecular target: Glucose-6-phosphate 1-dehydrogenase (Homo sapiens, UniProt P11413); test: inhibition of Homo sapiens G6PD, dose series – biochemical, fluorescence, selectivity assay for P. falciparum G6PD inhibitor project, dose response (AID 504792); assay type: functional
Cytochrome P450 1A2 = molecular target: T1, Cytochrome P450 1A2 (Homo sapiens, UniProt P05177);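 further: PubChem cytochrome P450 panel assay, CYP1A2 panel member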
T1 sequence (P05177 whole entry): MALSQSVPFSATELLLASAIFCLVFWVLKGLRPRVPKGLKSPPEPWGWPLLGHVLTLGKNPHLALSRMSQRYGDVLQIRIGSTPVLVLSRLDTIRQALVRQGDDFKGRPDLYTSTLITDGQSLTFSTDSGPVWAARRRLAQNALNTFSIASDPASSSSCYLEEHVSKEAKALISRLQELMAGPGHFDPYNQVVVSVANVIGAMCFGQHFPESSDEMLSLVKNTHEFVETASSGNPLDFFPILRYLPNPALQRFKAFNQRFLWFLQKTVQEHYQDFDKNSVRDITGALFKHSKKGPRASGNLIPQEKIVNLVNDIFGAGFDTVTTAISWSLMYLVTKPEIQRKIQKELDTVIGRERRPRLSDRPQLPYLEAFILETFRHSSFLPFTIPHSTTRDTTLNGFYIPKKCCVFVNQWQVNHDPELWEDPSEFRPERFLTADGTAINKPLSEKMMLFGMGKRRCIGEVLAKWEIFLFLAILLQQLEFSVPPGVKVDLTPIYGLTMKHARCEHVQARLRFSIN

Cytochrome P450 2C9 = Cytochrome P450 2C9 (Homo sapiens, UniProt P11712)
Cytochrome P450 2D6 [2] = molecular target: T2, Cytochrome P450 2D6 (Homo sapiens, UniProt P10635);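 further: CYP2D6 member of a cytochrome P450 panel assay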
Vero [3] = test: cells; assay type: functional, cell-based; conditions: Chlorocebus sabaeus
Vero [4] = test: cells; assay type: functional; conditions: Chlorocebus sabaeus
Paired box protein Pax-8 = Paired box protein Pax-8 (Homo sapiens, UniProt Q06710); test: PAX8 transcriptional activity inhibition in RMG-I – RMG-I cells, luciferase, cherry-pick, dose response (AID 687027); assay type: functional, cell-based;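 further: luciferase reporter driven by Pax8 target thyroperoxidase promoter measured by SteadyGlo luminescence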
Cytochrome P450 2C19 = Cytochrome P450 2C19 (Homo sapiens, UniProt P33261); test: Cytochrome panel assay with activity outcomes. Panel member name: p450-cyp2c19 Compounds with AC50 equal or less than 10 uM are considered active; assay type: functional; conditions: read-out: AC50
[5] = molecular target: T3, Short transient receptor potential channel 4 (Mus musculus, UniProt Q9QUQ5); test: calcium entry via TRPC4 opening agents – cell-based, HEK293 TRPC4/mu-opioid, Fluo-4 calcium, dose response (AID 434937); assay type: functional
T3 sequence (Q9QUQ5 whole entry): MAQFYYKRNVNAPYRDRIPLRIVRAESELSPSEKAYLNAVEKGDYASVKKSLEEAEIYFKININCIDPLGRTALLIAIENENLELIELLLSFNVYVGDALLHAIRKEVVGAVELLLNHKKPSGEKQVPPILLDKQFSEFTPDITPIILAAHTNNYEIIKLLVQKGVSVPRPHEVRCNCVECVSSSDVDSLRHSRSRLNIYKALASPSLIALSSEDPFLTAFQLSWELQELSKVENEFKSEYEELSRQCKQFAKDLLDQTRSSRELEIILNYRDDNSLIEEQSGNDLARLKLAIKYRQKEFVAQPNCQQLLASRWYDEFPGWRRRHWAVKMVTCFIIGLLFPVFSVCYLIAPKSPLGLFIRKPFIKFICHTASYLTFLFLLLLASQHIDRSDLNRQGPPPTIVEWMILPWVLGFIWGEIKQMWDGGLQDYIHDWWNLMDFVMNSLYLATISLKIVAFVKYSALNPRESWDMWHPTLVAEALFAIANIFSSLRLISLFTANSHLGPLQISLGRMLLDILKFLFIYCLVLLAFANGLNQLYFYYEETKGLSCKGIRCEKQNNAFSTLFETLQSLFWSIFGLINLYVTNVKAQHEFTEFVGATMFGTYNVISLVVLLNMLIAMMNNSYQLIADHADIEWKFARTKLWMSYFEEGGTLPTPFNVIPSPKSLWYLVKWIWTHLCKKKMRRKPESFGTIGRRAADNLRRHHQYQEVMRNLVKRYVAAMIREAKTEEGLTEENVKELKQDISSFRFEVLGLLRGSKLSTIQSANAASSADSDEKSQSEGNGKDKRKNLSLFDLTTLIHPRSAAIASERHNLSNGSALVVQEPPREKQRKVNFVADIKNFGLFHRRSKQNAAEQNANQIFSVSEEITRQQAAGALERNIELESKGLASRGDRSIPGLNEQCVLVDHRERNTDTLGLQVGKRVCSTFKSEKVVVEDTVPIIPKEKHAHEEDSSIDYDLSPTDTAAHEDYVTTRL

[6] = NIH-3T3 fibroblast cytotoxicity, dose response, cytotoxicity control, cell-based, fluorescence, Alamar Blue, secondary assay (AID 2327); assay type: functional;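 further: NIH-3T3 mouse fibroblasts cultured with fluconazole at 8 µg/mL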
[7] = molecular target: T4, Replicative DNA helicase DnaB (Mycobacterium tuberculosis, UniProt P9WMR3); test: DnaB intein splicing inhibitors, dose response, biochemical, cell-free fluorescence (AID 449749); assay type: functional
T4 sequence (P9WMR3 whole entry): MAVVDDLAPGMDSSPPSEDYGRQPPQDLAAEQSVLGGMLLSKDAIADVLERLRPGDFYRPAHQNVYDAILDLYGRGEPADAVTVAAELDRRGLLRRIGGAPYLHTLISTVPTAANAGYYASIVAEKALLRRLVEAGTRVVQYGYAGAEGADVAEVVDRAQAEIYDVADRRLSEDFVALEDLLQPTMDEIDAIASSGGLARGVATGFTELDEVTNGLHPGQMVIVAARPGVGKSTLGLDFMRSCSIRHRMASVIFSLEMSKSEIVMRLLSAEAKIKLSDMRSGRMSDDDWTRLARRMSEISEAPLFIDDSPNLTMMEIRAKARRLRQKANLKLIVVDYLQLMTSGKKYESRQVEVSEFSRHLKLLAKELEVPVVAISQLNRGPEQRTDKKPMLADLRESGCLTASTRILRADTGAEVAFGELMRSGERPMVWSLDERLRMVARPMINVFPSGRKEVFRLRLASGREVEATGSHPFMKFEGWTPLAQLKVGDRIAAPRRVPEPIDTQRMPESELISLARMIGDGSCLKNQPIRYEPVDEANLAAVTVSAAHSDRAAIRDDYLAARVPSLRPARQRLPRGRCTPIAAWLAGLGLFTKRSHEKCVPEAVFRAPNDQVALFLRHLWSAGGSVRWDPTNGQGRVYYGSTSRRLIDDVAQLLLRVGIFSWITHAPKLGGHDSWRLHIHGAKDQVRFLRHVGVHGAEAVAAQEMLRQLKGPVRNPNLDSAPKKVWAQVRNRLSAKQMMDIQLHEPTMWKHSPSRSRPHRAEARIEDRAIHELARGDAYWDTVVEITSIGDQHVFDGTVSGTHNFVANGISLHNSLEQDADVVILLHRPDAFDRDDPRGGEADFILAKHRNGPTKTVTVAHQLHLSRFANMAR

Cytochrome P450 2D6 [8] = molecular target: T2, Cytochrome P450 2D6; remark: listed apart in the source
[9] = fluconazole-exposed Candida albicans growth modulators – fluorescence, retest, confirmation (AID 2467); assay type: functional, cell-based
Protein RecA = molecular target: T5, Protein RecA (Mycobacterium tuberculosis, UniProt P9WHJ3); test: Fluorescence Cell-Free Homogeneous Dose Retest to Identify Inhibitors of RecA-Intein Splicing Activity. [Related pubchem assays (depositor defined):AID2097, AID2223, AID489010, AID492950]; assay type: functional
T5 sequence (P9WHJ3 whole entry): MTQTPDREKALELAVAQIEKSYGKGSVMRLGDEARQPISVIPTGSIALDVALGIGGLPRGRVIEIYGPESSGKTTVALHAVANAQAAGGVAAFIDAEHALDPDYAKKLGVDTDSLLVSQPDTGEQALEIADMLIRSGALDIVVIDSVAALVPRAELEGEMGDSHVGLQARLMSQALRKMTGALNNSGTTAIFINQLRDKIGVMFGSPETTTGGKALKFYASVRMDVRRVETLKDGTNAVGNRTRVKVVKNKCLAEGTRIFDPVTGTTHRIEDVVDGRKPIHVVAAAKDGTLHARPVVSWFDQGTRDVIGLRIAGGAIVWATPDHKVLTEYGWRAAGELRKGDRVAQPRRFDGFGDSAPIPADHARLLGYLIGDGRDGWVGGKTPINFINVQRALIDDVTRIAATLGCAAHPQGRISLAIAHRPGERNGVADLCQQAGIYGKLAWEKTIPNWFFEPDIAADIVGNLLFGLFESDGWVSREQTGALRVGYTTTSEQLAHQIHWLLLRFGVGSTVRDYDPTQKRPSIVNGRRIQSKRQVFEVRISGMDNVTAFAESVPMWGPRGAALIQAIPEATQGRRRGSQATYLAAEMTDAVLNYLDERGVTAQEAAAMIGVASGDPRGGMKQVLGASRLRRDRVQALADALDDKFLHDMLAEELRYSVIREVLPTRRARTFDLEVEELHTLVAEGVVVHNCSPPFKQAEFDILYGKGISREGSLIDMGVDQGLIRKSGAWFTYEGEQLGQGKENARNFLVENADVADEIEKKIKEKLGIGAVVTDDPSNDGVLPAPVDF

HEK293 [10] = test: cells; assay type: functional, cell-based; conditions: Homo sapiens
HEK293 [11] = test: cells; assay type: functional, cell-based; conditions: Homo sapiens; remark: listed apart in the source
[12] = Luminescence Cell-Based Dose Confirmation HTS to Identify Inhibitors of Platelet Dense Granule Release. [Related pubchem assays: 1663 (Primary HTS), 1678 (Summary of Project)]; assay type: functional
HEK293 [13] = test: NOD2 signaling inhibitors in MDP-stimulated cells, cell-based, uHTS, luminescence (AID 2001); assay type: functional; conditions: Homo sapiens
HEK293 [14] = test: inhibition of NOD1-driven NF-kB reporter – cell-based, luminescence, uHTS, primary screen (AID 1578); assay type: functional; conditions: Homo sapiens
HEK293 [15] = test: cells; assay type: functional, cell-based; conditions: Homo sapiens; remark: listed apart in the source
[16] = molecular target: Nucleotide-binding oligomerization domain-containing protein 2 (Homo sapiens, UniProt Q9HC29); test: inhibition of NOD2-driven NF-kB reporter – cell-based, luminescence, uHTS, HEK293 (AID 1566); assay type: functional
[17] = molecular target: Luciferin 4-monooxygenase (Photinus pyralis, UniProt P08659); test: inhibition of purified Photinus pyralis luciferase – biochemical, luminescence, dose response (AID 1891)
Cytochrome P450 3A4 = Cytochrome P450 3A4 (Homo sapiens, UniProt P08684);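 further: CYP3A4 tested as one member of a cytochrome P450 panel screen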
Chain of Cytochrome P450 3A4 (P08684 whole entry): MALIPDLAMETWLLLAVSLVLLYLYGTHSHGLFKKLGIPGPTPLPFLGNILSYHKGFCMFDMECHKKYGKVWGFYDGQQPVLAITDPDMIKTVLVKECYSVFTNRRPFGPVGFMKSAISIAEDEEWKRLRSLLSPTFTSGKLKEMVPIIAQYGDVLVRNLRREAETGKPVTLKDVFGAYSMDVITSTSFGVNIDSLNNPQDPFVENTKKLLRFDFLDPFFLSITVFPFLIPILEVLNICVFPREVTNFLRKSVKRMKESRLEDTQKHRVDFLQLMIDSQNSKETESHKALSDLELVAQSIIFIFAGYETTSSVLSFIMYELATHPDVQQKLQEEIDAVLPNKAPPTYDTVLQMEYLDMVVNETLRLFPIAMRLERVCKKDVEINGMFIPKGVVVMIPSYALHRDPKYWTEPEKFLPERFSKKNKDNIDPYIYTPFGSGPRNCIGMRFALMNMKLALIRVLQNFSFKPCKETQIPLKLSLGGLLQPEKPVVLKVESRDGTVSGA

T2 sequence (P10635 whole entry): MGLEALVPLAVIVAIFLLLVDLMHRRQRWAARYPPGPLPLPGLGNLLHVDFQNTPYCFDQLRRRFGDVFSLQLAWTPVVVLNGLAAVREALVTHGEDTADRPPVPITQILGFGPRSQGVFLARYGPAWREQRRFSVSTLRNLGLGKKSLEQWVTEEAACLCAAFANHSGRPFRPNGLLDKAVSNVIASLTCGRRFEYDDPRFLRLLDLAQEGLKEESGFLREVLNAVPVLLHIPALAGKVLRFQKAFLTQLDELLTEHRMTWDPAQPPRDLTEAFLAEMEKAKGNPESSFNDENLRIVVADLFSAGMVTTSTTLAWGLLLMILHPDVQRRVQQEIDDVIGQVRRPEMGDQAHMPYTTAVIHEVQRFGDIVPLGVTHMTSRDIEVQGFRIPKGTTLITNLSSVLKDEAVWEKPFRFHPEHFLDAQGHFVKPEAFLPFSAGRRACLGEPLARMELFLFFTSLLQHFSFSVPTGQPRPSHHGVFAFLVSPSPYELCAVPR
Chain of Cytochrome P450 2C19 (P33261 whole entry): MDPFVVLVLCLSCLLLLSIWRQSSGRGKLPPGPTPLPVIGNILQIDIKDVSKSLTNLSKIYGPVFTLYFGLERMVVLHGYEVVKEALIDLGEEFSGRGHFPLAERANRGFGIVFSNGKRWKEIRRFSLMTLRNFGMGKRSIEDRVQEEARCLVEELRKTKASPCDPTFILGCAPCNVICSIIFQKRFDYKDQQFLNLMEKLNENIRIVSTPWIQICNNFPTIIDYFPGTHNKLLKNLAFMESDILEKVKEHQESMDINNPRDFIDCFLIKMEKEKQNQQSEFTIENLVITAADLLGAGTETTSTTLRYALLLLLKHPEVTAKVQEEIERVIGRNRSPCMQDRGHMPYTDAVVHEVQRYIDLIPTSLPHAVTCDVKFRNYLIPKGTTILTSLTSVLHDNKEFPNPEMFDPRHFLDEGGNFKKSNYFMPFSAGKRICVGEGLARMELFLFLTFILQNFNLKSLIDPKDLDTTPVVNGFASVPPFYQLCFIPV
Chain of Cytochrome P450 2C9 (P11712 whole entry): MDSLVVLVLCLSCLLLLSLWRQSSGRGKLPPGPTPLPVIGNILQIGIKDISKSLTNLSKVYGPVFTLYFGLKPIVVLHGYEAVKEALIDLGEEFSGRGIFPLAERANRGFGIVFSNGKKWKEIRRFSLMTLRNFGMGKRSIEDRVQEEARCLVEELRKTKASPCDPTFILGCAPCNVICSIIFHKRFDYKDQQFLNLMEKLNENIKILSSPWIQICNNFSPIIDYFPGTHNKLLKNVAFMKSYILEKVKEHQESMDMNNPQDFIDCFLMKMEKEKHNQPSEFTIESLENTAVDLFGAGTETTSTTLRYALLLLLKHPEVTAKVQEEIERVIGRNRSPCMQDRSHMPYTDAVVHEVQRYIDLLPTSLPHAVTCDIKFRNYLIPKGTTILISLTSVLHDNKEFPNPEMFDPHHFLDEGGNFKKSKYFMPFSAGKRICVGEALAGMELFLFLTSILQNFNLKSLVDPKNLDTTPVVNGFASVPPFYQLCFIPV
Chain of Nucleotide-binding oligomerization domain-containing protein 2 (Q9HC29 whole entry, the tested form may be a part): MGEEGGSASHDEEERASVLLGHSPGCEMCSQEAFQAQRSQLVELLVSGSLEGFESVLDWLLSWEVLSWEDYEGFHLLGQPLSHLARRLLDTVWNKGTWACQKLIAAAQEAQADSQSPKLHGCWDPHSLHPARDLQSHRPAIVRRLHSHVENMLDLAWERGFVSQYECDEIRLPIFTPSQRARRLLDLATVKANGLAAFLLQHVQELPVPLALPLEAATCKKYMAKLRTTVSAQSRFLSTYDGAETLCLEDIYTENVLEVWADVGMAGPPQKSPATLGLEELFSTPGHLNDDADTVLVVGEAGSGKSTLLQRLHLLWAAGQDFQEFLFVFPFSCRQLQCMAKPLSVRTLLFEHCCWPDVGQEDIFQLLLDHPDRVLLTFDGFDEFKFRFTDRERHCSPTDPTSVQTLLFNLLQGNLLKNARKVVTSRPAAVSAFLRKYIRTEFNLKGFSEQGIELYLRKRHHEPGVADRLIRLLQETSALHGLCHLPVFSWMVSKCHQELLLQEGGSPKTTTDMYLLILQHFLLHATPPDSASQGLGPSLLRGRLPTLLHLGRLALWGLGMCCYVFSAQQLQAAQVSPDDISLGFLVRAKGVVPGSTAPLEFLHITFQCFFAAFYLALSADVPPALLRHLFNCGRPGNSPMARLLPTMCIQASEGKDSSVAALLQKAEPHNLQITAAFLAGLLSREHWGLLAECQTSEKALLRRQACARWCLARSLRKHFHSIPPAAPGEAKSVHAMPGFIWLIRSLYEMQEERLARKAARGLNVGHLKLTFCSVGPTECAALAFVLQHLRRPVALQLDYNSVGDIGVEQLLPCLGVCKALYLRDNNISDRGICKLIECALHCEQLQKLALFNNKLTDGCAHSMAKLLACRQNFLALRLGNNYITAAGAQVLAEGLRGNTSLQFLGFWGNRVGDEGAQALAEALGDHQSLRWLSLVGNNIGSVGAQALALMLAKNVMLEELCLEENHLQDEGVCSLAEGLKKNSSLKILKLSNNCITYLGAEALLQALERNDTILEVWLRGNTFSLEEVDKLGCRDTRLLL
Chain of Paired box protein Pax-8 (Q06710 whole entry): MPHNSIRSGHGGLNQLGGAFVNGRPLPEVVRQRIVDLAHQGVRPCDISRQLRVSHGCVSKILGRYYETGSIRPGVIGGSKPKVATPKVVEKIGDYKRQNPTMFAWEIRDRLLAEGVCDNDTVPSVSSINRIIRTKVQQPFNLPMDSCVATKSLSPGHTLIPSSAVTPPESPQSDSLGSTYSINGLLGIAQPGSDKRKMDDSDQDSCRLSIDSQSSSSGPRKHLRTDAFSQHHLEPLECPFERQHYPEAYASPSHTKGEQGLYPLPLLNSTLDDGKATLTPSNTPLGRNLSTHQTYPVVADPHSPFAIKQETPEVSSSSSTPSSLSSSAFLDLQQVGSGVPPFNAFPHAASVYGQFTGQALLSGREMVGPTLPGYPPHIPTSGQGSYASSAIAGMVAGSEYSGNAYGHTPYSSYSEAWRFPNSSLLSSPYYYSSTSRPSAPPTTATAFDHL
Chain of Glucose-6-phosphate 1-dehydrogenase (P11413 whole entry): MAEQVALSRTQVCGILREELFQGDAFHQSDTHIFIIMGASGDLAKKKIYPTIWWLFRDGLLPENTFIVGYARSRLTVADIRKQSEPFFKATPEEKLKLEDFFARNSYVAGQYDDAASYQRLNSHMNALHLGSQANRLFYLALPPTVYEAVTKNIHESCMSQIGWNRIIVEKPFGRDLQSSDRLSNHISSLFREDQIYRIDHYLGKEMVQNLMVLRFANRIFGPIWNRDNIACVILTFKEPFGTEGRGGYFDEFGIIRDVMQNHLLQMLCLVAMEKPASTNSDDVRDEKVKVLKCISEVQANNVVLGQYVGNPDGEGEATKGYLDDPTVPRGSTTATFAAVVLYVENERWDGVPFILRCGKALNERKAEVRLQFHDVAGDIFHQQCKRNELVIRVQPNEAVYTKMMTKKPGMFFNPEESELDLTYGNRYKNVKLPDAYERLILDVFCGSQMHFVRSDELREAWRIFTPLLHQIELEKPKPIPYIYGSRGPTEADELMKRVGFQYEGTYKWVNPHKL
Chain of Luciferin 4-monooxygenase (P08659 whole entry): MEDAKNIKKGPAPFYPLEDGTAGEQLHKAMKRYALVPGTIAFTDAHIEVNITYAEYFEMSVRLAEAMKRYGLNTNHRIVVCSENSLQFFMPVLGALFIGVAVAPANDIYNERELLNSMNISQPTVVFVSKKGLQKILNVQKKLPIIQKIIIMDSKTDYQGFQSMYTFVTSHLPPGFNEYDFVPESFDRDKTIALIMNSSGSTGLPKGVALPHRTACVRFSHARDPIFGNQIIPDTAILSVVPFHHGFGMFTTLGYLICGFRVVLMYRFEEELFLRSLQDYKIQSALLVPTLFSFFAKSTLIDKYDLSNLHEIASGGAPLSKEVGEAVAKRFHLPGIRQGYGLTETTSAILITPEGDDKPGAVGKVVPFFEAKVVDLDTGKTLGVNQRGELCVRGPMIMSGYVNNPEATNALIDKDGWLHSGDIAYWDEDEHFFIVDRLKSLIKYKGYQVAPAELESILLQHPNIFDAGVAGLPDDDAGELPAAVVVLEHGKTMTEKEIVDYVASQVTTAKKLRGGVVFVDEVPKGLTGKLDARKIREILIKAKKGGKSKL

Structure (SMILES): COc1ccc(C(=O)Nc2nnc(S(=O)(=O)N3CCOCC3)s2)cc1
- IC50 [1]: > 80 µM (inactive)

Structure (SMILES): CCC(=O)c1ccc(OCc2ccc(C(=O)OC)cc2)c(OC)c1
- AC50 (Cytochrome P450 1A2): 6.31 µM (inconclusive)
- AC50 (Cytochrome P450 2C9): 8.91 µM (inconclusive)
- AC50 (Cytochrome P450 2D6 [2]): inconclusive

Structure (SMILES): CC(=O)O[C@H]1C[C@H](O[C@H]2[C@@H](O)C[C@H](O[C@H]3[C@@H](O)C[C@H](O[C@H]4CC[C@@]5(C)[C@H](CC[C@@H]6[C@@H]5C[C@@H](O)[C@]5(C)[C@@H](C7=CC(=O)OC7)CC[C@]65O)C4)O[C@@H]3C)O[C@@H]2C)O[C@H](C)[C@H]1O[C@@H]1O[C@H](CO)[C@@H](O)[C@H](O)[C@H]1O [LANATOSIDE C]
- IC50 (Vero [3]): > 25 µM (active)
- CC50 (Vero [4]): 0.65 µM (active)
- AC50 (Paired box protein Pax-8): 0.801 µM (active)

Structure (SMILES): CC(C)CNC(=O)c1nc(-c2ccccc2)n(-c2ccccc2)n1
- AC50 (Cytochrome P450 1A2): 28.2 µM (inconclusive)
- AC50 (Cytochrome P450 2C9): 39.8 µM (inconclusive)
- AC50 (Cytochrome P450 2C19): 39.8 µM (inconclusive)
- AC50 (Cytochrome P450 2D6 [2]): inconclusive

Structure (SMILES): COc1ccc(C(=O)NC(=S)NNC(=O)CCc2ccccc2)cc1
- AC50 (Cytochrome P450 1A2): 15.8 µM (inconclusive)
- IC50 (Vero [3]): 24.6 µM (active)
- EC50 [5]: 5.96 µM (active)
- EC50 [6]: > 150 µM (inconclusive)
- AC50 [7]: > 380 µM (inactive)
- CC50 (Vero [4]): 24.2 µM (active)
- AC50 (Cytochrome P450 2D6 [8]): 15.8 µM (inconclusive)
- EC50 [9]: 2.16 µM (active)
- AC50 (Cytochrome P450 2C19): 14.1 µM (inconclusive)
- EC50 (Protein RecA): > 380 µM (inactive)

Structure (SMILES): Cc1ccc(-n2c(C)cc(/C=c3/sc4nc5ccccc5n4c3=O)c2C)cc1
- IC50 (HEK293 [10]): > 20 µM (inactive)
- IC50 (HEK293 [11]): 0.703 µM (active)
- EC50 [12]: > 112 µM (not active)
- IC50 (HEK293 [13]): 0.48 µM (active)
- EC50 (HEK293 [14]): 2.95 µM (active)
- IC50 (HEK293 [15]): > 20 µM (inactive)
- EC50 [16]: 0.49 µM (active)
- EC50 [17]: > 112 µM (not active)

Structure (SMILES): Cc1cc(C)n2nc(SCN3C(=O)c4ccccc4C3=O)nc2n1
- AC50 (Cytochrome P450 3A4): 6.31 µM (inconclusive)
- AC50 (Cytochrome P450 2D6 [2]): inconclusive

Source: ChEMBL document CHEMBL1201862, “PubChem BioAssay data set” (2004)
